Assay [1] concerns CSM14.1 neuronal cells. Briefly: Rescue of CSM14.1 neurons from thapsigargin-induced cell death (ATPlite cell viability). The format is cell-based, rat. The following applies: 15 μM thapsigargin for 20 h after 2 h preincubation, TG alone causes ~100% cell death. The source says:
Ability of compounds to rescue CSM14.1 neurons from thapsigargin-induced cell death. To assess the ability of the compounds to rescue neurons from ER stress-induced cell death, the rat striatal neuroprogenitor cell line CSM14.1 was used. Endoplasmic reticulum (ER) stress has been established as the major cause of neuronal loss in stroke, ischemia, and neurodegeneration (Tajiri, S.; Oyadomari, S.; Yano, S.; Morioka, M.; Gotoh, T.; Hamada, J. I.; Ushio, Y.; Mori, M. Cell Death Differ. 2004, 11, 403-415; Kohno, K.; Higuchi, T.; Ohta, S.; Kumon, Y.; Sakaki, S. Neurosci. Lett. 1997, 224, 17-20; Iadecola, C.; Zhang, F.; Casey, R.; Nagayama, M.; Ross, M. E. J. Neurosci. 1997, 17, 9157-9164). Thus, we used the known ER stress-causing agent thapsigargin (TG) to model the compromised state in vitro. TG causes 100% cell death in most cases, and compounds were assessed for neuroprotection by measuring cell viability when dosed at 10 μM. CSM14.1 cells were recovered from cultures by trypsinization and plated in 96-well plates and incubated overnight at 32° C. 5 μl of test compound was added to achieve a final concentration of […]. Salubrinal and DMSO without compound were used as positive and negative controls, respectively. After 2 h of preincubation, TG-containing DMEM was added to give a final concentration of 15 μM and incubated for an additional 20 h. Cell viability was assessed by a cellular ATP content assay (ATPlite, PerkinElmer Life Sciences).
(ATP-based viability assays read luminescence as a measure of living cells.)

Assay [2] deals with BGMK cells. Put plainly: Rescue of BGMK cells from thapsigargin-induced cell death (CCK-8 cell viability). The following applies: for % BGMK Cell Viability after treatment in Presence of 10 μM compound: 2 hr pretreatment, TG 24 hrs, TG alone causes ~100% cell death. The format is cell-based. The source says: Ability of compounds to rescue BGMK cells from thapsigargin-induced cell death. To assess an orthogonal cell line and further validate the ability of SUMOylation activators to rescue varied cell types, the compounds were also profiled for cytoprotection in BGMK cells. Again, we used the known ER stress-causing agent thapsigargin (TG) to model the compromised state in vitro. BGMKs were subcultured at 1.2×10^4 cells/ml. Wells treated with compound were done so for 2 hr. […] After treatment, all cells were washed and fed fresh DMEM complete media and CCK-8 development vehicle, incubated for 2 hr, and absorbance was measured to assess viability. Controls were DMSO (0% viability) and Salubrinal (47% viability).

Assay [3] relates to SUMOylation of His-RanGap (SUMO-E1 (SAE), SUMO-E2 (UBC9), GST-SUMO). Put plainly: HTRF assay measuring increase in SUMOylation of His-RanGap. It counts as biochemical. The conditions noted are these: His-RanGap substrate; HTRF 665/620 ratio; 70 nl of 2 mM compound in DMSO per well; 30 min at room temperature; triplicate. The protocol: Assay measuring increase in SUMOylation of His-RanGap. We utilized an HTRF assay containing SUMO-E1 (SAE), SUMO-E2 (UBC9), GST-SUMO and His-RanGap, a known SUMO substrate, as well as the respective fluorescent antibodies. The assay was run in 1536-well plate format and the selected activators were chosen based on their ability to increase the FRET signal over a baseline level. In 1536-well white plates, 2 μl of phosphate buffered saline (assay buffer) was dispensed into columns 1 and 2, and 2 μl of Mixture 1 (37.5 nM E1 and 100 nM His-RanGap-1) in assay buffer (50 mM Tris-HCl pH 7.4, 0.3 mM DTT, 10 mM MgCl2, 0.005% Tween-20), was dispensed into columns 3-48. Using a pintool, 70 nl of 2 mM compounds in DMSO was dispensed to columns 5-48 and 70 nl of DMSO was dispensed to columns 1-4. Using the Thermo Scientific MultiDrop Combi, 2 μL of Mixture 2 (20 mM ATP, 12.5 nM E2 and 30 nM GST-SUMO in buffer) was dispensed to all wells and incubated for 30 min. at room temperature followed by 1 μl of 500 mM KF. Plates were read on a PheraStar in a HTRF mode (Ex: 337 nm; Em: 620/665 nm). The ratio of fluorescence 665 over 620 was utilized as a readout of the assay. Increase in SUMOylation was calculated by comparison to baseline level. Measurements were done in triplicate.

Here are results for eleven molecules from patent US11213701B2, “Neuroprotective quinoline sulfonamides” (priority 2018, dated 2022).

In the case of `CC(=O)Nc1ccc(S(=O)(=O)Nc2cccc3cccnc23)cc1` [Compound A1, N-(4-(N-(Quinolin-8-yl)sulfamoyl)phenyl)acetamide], the “% CSM14.1 Cell Viability after treatment with 15 μM TG in Presence of 10 μM compound” value (“% CSM14.1 Cell Viability after treatment” for short) in assay [1] was “B (B = 51%-60% viability)”. In addition, the “% BGMK Cell Viability after treatment in Presence of 10 μM compound” value (“% BGMK Cell Viability after treatment” below) in assay [2] is “C (C = 51%-60% viability)”. Moreover, in assay [3], the “% INCREASE IN SUMOylation over endogenous baseline level” value (from here on “% INCREASE IN SUMOylation”) was “B (B = 21%-30% increase)”.

As to `O=S(=O)(Nc1cccc2cccnc12)c1ccc(S(=O)(=O)N2CCCC2)cc1` [Compound A2, 4-(Pyrrolidin-1-ylsulfonyl)-N-(quinolin-8-yl)benzenesulfonamide], in assay [1], the “% CSM14.1 Cell Viability after treatment” value is given as “C (C = 61%-70% viability of CSM14.1 neurons)”. Further, in assay [2], the “% BGMK Cell Viability after treatment” value is “D (D = 61%-70% viability of BGMK cells)”. Further, in assay [3], the “% INCREASE IN SUMOylation” value is on record as “D (D = 40%-50% increase in SUMOylation over baseline levels)”.

With `O=S(=O)(Nc1cccc2cccnc12)c1ccccc1` [Compound A3, N-(Quinolin-8-yl)benzenesulfonamide], the “% CSM14.1 Cell Viability after treatment” value in assay [1] is recorded as “A (A = 40%-50% viability)”. Besides, the “% BGMK Cell Viability after treatment” value in assay [2] is listed as “A (A = 30%-40% viability)”. Besides, the “% INCREASE IN SUMOylation” value in assay [3] is reported as “B (B = 21%-30% increase)”.

Regarding `COc1ccc(NS(=O)(=O)c2ccc3ccccc3c2)c2ncccc12` [Compound A4, N-(5-Methoxy-8-quinolinyl)-2-naphthalenesulfonamide], in assay [3], the “% INCREASE IN SUMOylation” value is “C (C = 31%-40% increase)”.

`O=[N+]([O-])c1ccccc1S(=O)(=O)Nc1cccc2cccnc12` [Compound A5, 2-Nitro-N-(8-quinolinyl)benzenesulfonamide]: the “% INCREASE IN SUMOylation” value in assay [3] is listed as “C (C = 31%-40% increase)”.

In the case of `Cc1ccc(S(=O)(=O)Nc2cccc3cccnc23)cc1` [Compound A6, 4-Methyl-N-(quinolin-8-yl)benzenesulfonamide], in assay [1], the “% CSM14.1 Cell Viability after treatment” value is “C (C = 61%-70% viability of CSM14.1 neurons)”. The “% BGMK Cell Viability after treatment” value in assay [2] is “C (C = 51%-60% viability)”. In addition, in assay [3], the “% INCREASE IN SUMOylation” value was “B (B = 21%-30% increase)”.

For the molecule `Cc1cc(C)n(-c2ccc3cccc(NS(C)(=O)=O)c3n2)n1` [Compound A7, N-[2-(3,5-Dimethyl-1H-pyrazol-1-yl)-8-quinolinyl]methanesulfonamide], the “% INCREASE IN SUMOylation” value in assay [3] is on record as “B (B = 21%-30% increase)”.

Take `CS(=O)(=O)Nc1cccc2cccnc12` [Compound A8, N-(8-Quinolinyl)methanesulfonamide]: the “% INCREASE IN SUMOylation” value in assay [3] is “B (B = 21%-30% increase)”.

Regarding `COc1cc(NS(=O)(=O)c2ccc3ccccc3c2)c2ncccc2c1` [Compound A9, N-(6-Methoxy-8-quinolinyl)-2-naphthalenesulfonamide], the “% INCREASE IN SUMOylation” value in assay [3] was “B (B = 21%-30% increase)”.

For `COc1cc(NS(=O)(=O)c2ccc(C)cc2)c2ncccc2c1` [Compound A10, N-(6-Methoxy-8-quinolinyl)-4-methylbenzenesulfonamide], the “% INCREASE IN SUMOylation” value in assay [3] is recorded as “C (C = 31%-40% increase)”.

Consider `O=C(/C=C/c1ccccc1)NC(NC(=S)Nc1cccc2cccnc12)C(Cl)(Cl)Cl` (stereo not shown) [Salubrinal, reference compound], for which the “BGMK cell viability (control)” value in assay [2] (positive control after thapsigargin injury, DMSO = 0% viability, control concentration not given) came out at 47%.
